Measurements published in ChEMBL document CHEMBL1158925, “New proazulene guaianolides from Thapsia villosa” (J Nat Prod, 1990).
Calls of active or inactive are those of the source. No cut-off for these calls is given here.

How the values were obtained:
[1] = Skin irritant activity in mouse ear at 10 ug after 24 hrs; format: ADME, tissue-based; conditions: in vivo, topical_or_ocular
Mast cell = test: Induction of histamine release in rat peritoneal mast cells at 10 uM; format: functional, cell-based

Row | SMILES | Activity [1] | Activity (Mast cell)
1 | CC(=O)O[C@@H]1C=C(C)[C@H]2[C@@H]3OC(=O)[C@@](C)(OC(C)=O)[C@@H]3[C@@H](OC(=O)C=C(C)C)C[C@](C)(OC(C)=O)[C@H]21 | Non-toxic | inactive
2 | CCC(C)C(=O)O[C@H]1C[C@](C)(OC(C)=O)[C@@H]2[C@@H](C(C)=C[C@H]2O)[C@@H]2OC(=O)[C@@](C)(OC(C)=O)[C@@H]21 (stereo not given in full) | Non-toxic | inactive
3 | CCC(C)C(=O)O[C@H]1C[C@](C)(OC(C)=O)[C@@H]2[C@@H](C(C)=C[C@H]2OC(C)=O)[C@@H]2OC(=O)[C@@](C)(OC(C)=O)[C@@H]21 (stereo not given in full) | Non-toxic | inactive
4 | C/C=C(/C)C(=O)O[C@H]1C(C)=C2[C@H]([C@@H]1OC(=O)CCCCCCC)[C@@](C)(OC(C)=O)C[C@H](OC(=O)CCC)[C@@]1(O)[C@H]2OC(=O)[C@@]1(C)O [THAPSIGARGIN] | Non-toxic | inactive
5 | CC(=O)O[C@@]1(C)C[C@H](OC(=O)C=C(C)C)[C@@H]2[C@@H](OC(=O)[C@@]2(C)OC(C)=O)[C@@H]2C(C)=C[C@@H](O)[C@@H]21 | Non-toxic | inactive
